# Laboratory results: patent US11780832B2, “Lactivicin compounds, their preparation and use as antibacterial agents” (priority 2021, dated 2023)
# What was measured:
# Assay in all cases: MIC, CLSI broth microdilution
# Assay type in all cases: cell-based
# [1] = system: Klebsiella pneumoniae OXA-48, SHV-1
# Procedure: (§1) Gram-negative and Gram-positive bacterial strains used during the in vitro minimum inhibitory concentration (MIC) determination were obtained either from the American Type Culture Collection (ATCC) or from clinical specimens. All strains were characterized genotypically and the respective antibiotic resistance markers for each strain were identified.
# (§2) Isolates were sub-cultured onto appropriate media and stocked in skim milk at −80° C. Following two subcultures from frozen stock, in vitro antimicrobial susceptibility testing was performed using the Clinical and Laboratory Standards Institute (CLSI) broth microdilution method. Briefly, fresh cultures were suspended in culture media to give a final stock inoculum size of 5×10^7 colony forming units per milliliter of broth (CFU/mL). […] 100 μL of the stock solutions were added to the first wells in a 96-well plate and were then diluted using a 2-fold dilution method to give a range of 32-0.025 μg/mL. 100 μL of the bacterial suspensions were then added to the 96-well plates to give a final working inoculum size of 5×10^5 CFU/mL. The final compound concentration range was 16-0.0125 μg/mL. […] MICs for comparator agents were determined using custom-designed, in-house prepared 96-well broth microdilution panels.
# [2] = system: Enterobacter cloacae species complex NDM-1
# Procedure: as §1, §2
# Escherichia coli CMY-2 = conditions: CMY2
# Procedure: as §1, §2
# Escherichia coli SHV-12 = conditions: SHV12
# Procedure: as §1, §2
# [3] = system: Pseudomonas aeruginosa ATCC 27853; conditions: ATCC27853
# Procedure: as §1, §2
# [4] = system: Escherichia coli pSMART_Cfreundii_AmpC
# Procedure: as §1, §2
# [5] = system: Pseudomonas aeruginosa AmpC overexpressed
# Procedure: as §1, §2
# [6] = system: Escherichia coli Isogenic TEM-26
# Procedure: as §1, §2
# [7] = system: Klebsiella oxytoca KPC-2, TEM-1; conditions: KPC-2, TEM-1, read-out: MIC
# Procedure: as §1, §2
# [8] = system: Escherichia coli Empty pSMART plasmid
# Procedure: as §1, §2
# [9] = system: Escherichia coli ATCC 25922; conditions: ATCC25922
# Procedure: as §1, §2
# [10] = system: Serratia marcescens AmpC overexpressed
# Procedure: as §1, §2
# [11] = system: Escherichia coli pSMART_Ecloacae_AmpC
# Procedure: as §1, §2
# [12] = system: Klebsiella pneumoniae OXA-163, OXA-1_OXA-30, SHV-1, TEM-1
# Procedure: as §1, §2
# [13] = system: Serratia marcescens SME-2; conditions: SME2
# Procedure: as §1, §2
# [14] = system: Klebsiella pneumoniae SHV-12; conditions: SHV12, SHV-12, read-out: MIC
# Procedure: as §1, §2
# [15] = system: Klebsiella pneumoniae KPC-2; conditions: KPC2
# Procedure: as §1, §2
# [16] = system: Klebsiella pneumoniae KPC-3; conditions: KPC3, KPC-3, read-out: MIC
# Procedure: as §1, §2
# [17] = system: Escherichia coli Isogenic TEM-10
# Procedure: as §1, §2
# [18] = system: Escherichia coli CTX-M-15; conditions: CTXM15
# Procedure: as §1, §2
# [19] = system: Acinetobacter baumannii ATCC 19606; conditions: ATCC19606
# Procedure: as §1, §2
# [20] = system: Citrobacter freundii species complex OXA-181; conditions: Citrobacter freundii species complex, OXA-181; read-out: MIC
# Procedure: as §1, §2
# [21] = system: Klebsiella aerogenes VIM-1, SHV-12
# Procedure: as §1, §2
# [22] = system: Pseudomonas aeruginosa OprD negative
# Procedure: as §1, §2
Compound,MIC [1],MIC [2],MIC (Escherichia coli CMY-2),MIC (Escherichia coli SHV-12),MIC [3],MIC [4],MIC [5],MIC [6],MIC [7],MIC [8],MIC [9],MIC [10],MIC [11],MIC [12],MIC [13],MIC [14],MIC [15],MIC [16],MIC [17],MIC [18],further results
"Nc1nc(/C(=N/OC2(C(=O)O)CCC2)C(=O)N[C@H]2CON(C3(C(=O)O)C[C@H](N4C(=O)c5cc(O)c(O)cc5C4=O)C(=O)O3)C2=O)cs1 (stereo partly drawn) [Cmpd 4, (4S)-2-[(4S)-4-{[(2Z)-2-(2-amino-1,3-thiazol-4-yl)-2-{[(1-carboxycyclobutyl)oxy]imino}acetyl]amino}-3-oxo-1,2-oxazolidin-2-yl]-4-(5,6-dihydroxy-1,3-dioxo-1,3-dihydro-2H-isoindol-2-yl)-5-oxooxolane-2-carboxylic acid]",≤ 0.015 µg/mL,0.25 µg/mL,2 µg/mL,1 µg/mL,0.25 µg/mL,0.12 µg/mL,1 µg/mL,0.06 µg/mL,≤ 0.015 µg/mL,≤ 0.015 µg/mL,0.25 µg/mL,0.12 µg/mL,0.06 µg/mL,0.06 µg/mL,0.06 µg/mL,0.03 µg/mL,0.06 µg/mL,0.03 µg/mL,0.03 µg/mL,1 µg/mL,MIC [19]: 0.12 µg/mL; MIC [20]: 0.06 µg/mL; MIC [21]: 1 µg/mL; MIC [22]: 1 µg/mL
"Nc1nc(/C(=N/OC2(C(=O)O)COC2)C(=O)N[C@H]2CON(C3(C(=O)O)C[C@H](N4C(=O)c5cc(O)c(O)cc5C4=O)C(=O)O3)C2=O)cs1 (stereo partly drawn) [Cmpd 5, (4S)-2-[(4S)-4-{[(2Z)-2-(2-amino-1,3-thiazol-4-yl)-2-{[(3-carboxyoxetan-3-yl)oxy]imino}acetyl]amino}-3-oxo-1,2-oxazolidin-2-yl]-4-(5,6-dihydroxy-1,3-dioxo-1,3-dihydro-2H-isoindol-2-yl)-5-oxooxolane-2-carboxylic acid]",≤ 0.015 µg/mL,0.25 µg/mL,4 µg/mL,1 µg/mL,0.25 µg/mL,0.25 µg/mL,1 µg/mL,0.03 µg/mL,≤ 0.015 µg/mL,≤ 0.015 µg/mL,0.25 µg/mL,0.25 µg/mL,0.06 µg/mL,0.06 µg/mL,0.12 µg/mL,0.03 µg/mL,0.06 µg/mL,0.03 µg/mL,0.03 µg/mL,2 µg/mL,MIC [19]: 0.12 µg/mL; MIC [20]: 0.06 µg/mL; MIC [21]: 2 µg/mL; MIC [22]: 2 µg/mL
"Nc1nc(/C(=N/OC(CO)(CCl)C(=O)O)C(=O)N[C@H]2CON(C3(C(=O)O)C[C@H](N4C(=O)c5cc(O)c(O)cc5C4=O)C(=O)O3)C2=O)cs1 (stereo partly drawn) [Cmpd 6, (4S)-2-[(4S)-4-{[(2Z)-2-(2-amino-1,3-thiazol-4-yl)-2-{[(2-carboxy-1-chloro-3-hydroxypropan-2-yl)oxy]imino}acetyl]amino}-3-oxo-1,2-oxazolidin-2-yl]-4-(5,6-dihydroxy-1,3-dioxo-1,3-dihydro-2H-isoindol-2-yl)-5-oxooxolane-2-carboxylic acid]",≤ 0.015 µg/mL,0.25 µg/mL,1 µg/mL,1 µg/mL,0.25 µg/mL,0.06 µg/mL,1 µg/mL,≤ 0.015 µg/mL,≤ 0.015 µg/mL,≤ 0.015 µg/mL,0.12 µg/mL,0.12 µg/mL,0.06 µg/mL,0.03 µg/mL,0.06 µg/mL,≤ 0.015 µg/mL,0.03 µg/mL,0.03 µg/mL,≤ 0.015 µg/mL,2 µg/mL,MIC [19]: 0.12 µg/mL; MIC [20]: ≤ 0.015 µg/mL; MIC [21]: 0.5 µg/mL; MIC [22]: 2 µg/mL
"Nc1nc(/C(=N/OC2(C(=O)O)CNC2)C(=O)N[C@H]2CON(C3(C(=O)O)C[C@H](N4C(=O)c5cc(O)c(O)cc5C4=O)C(=O)O3)C2=O)cs1 (stereo partly drawn) [Cmpd 7, 3-({(Z)-[1-(2-amino-1,3-thiazol-4-yl)-2-({(4S)-2-[(4S)-2-carboxy-4-(5,6-dihydroxy-1,3-dioxo-1,3-dihydro-2H-isoindol-2-yl)-5-oxooxolan-2-yl]-3-oxo-1,2-oxazolidin-4-yl}amino)-2-oxoethylidene]amino}oxy)azetidine-3-carboxylic acid]",0.12 µg/mL,> 16 µg/mL,4 µg/mL,1 µg/mL,> 16 µg/mL,1 µg/mL,> 16 µg/mL,0.25 µg/mL,0.12 µg/mL,0.12 µg/mL,1 µg/mL,> 16 µg/mL,0.5 µg/mL,0.5 µg/mL,0.5 µg/mL,0.5 µg/mL,0.5 µg/mL,0.5 µg/mL,0.12 µg/mL,8 µg/mL,MIC [19]: > 16 µg/mL; MIC [20]: 1 µg/mL; MIC [21]: 8 µg/mL; MIC [22]: > 16 µg/mL
"CN1CCC(O/N=C(\C(=O)N[C@H]2CON(C3(C(=O)O)C[C@H](N4C(=O)c5cc(O)c(O)cc5C4=O)C(=O)O3)C2=O)c2csc(N)n2)(C(=O)O)CC1 (stereo partly drawn) [Cmpd 9, 4-({(Z)-[1-(2-amino-1,3-thiazol-4-yl)-2-({(4S)-2-[(4S)-2-carboxy-4-(5,6-dihydroxy-1,3-dioxo-1,3-dihydro-2H-isoindol-2-yl)-5-oxooxolan-2-yl]-3-oxo-1,2-oxazolidin-4-yl}amino)-2-oxoethylidene]amino}oxy)-1-methylpiperidine-4-carboxylic acid]",0.12 µg/mL,8 µg/mL,2 µg/mL,2 µg/mL,4 µg/mL,0.25 µg/mL,> 16 µg/mL,0.12 µg/mL,0.03 µg/mL,0.12 µg/mL,0.5 µg/mL,4 µg/mL,0.25 µg/mL,0.25 µg/mL,0.5 µg/mL,0.12 µg/mL,0.25 µg/mL,0.25 µg/mL,0.12 µg/mL,4 µg/mL,MIC [19]: 2 µg/mL; MIC [20]: 0.25 µg/mL; MIC [21]: 0.5 µg/mL; MIC [22]: > 16 µg/mL
